Residues, ends and D or L forms follow the SMILES beside them.
Biological target: IL-17RA/IL17RC dimerization induced by IL-17A (Homo sapiens, UniProt Q16552)
Assay: IL-17RA/IL17RC dimerization assay in response to IL-17A (PathHunter Cytokine Receptor Assay)
Format: cell-based
Conditions: IL-17A at EC80; read-out: IC50 in IL-17RA/IL7RC dimerization assay
Summary of the method: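 Receptor dimerization was read as chemiluminescence from complemented β-galactosidase after IL-17A at EC80 concentration for 6–16 h at 37 °C. Peptides were added 60 min before agonist, at 37 °C or room temperature, with 1% vehicle. Percent inhibition used the EC80-stimulated and vehicle wells as references.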

Sequence of IL-17RA/IL17RC dimerization induced by IL-17A (Q16552 24-155): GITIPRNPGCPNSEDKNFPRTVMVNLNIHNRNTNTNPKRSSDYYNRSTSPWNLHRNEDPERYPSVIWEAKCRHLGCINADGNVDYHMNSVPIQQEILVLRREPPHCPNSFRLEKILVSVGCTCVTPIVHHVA

| SMILES | IC50 |
| --- | --- |
| CC[C@H](C)[C@H](NC(=O)[C@H](CCC(=O)O)NC(=O)[C@H](CCC(N)=O)NC(=O)[C@@H]1CCCN1C(=O)[C@@H](NC(=O)[C@@H](NC(=O)[C@@H](NC(=O)[C@H](Cc1c[nH]cn1)NC(=O)[C@@H](NC(C)=O)C(C)C)C(C)C)[C@@H](C)O)C(C)C)C(=O)N[C@@H](Cc1ccc(O)cc1)C(=O)N[C@@H](CCC(=O)O)C(=O)N[C@@H](Cc1c[nH]c2ccccc12)C(=O)N[C@H](C(=O)N[C@@H](CCCNC(=N)N)C(=O)N[C@@H](CCCNC(=N)N)C(N)=O)C(C)C [SEQ ID NO: 236] (Ac-VHVTVPQEIYEWVRR-NH2) | < 10 µM |
| CC[C@H](C)[C@H](NC(=O)[C@H](CCC(=O)O)NC(=O)[C@H](CCC(N)=O)NC(=O)[C@@H]1CCCN1C(=O)[C@@H](NC(=O)[C@@H](NC(=O)[C@@H](NC(=O)[C@H](Cc1c[nH]cn1)NC(=O)[C@@H](NC(C)=O)C(C)C)C(C)C)[C@@H](C)O)[C@@H](C)CC)C(=O)N[C@@H](Cc1c[nH]c2ccccc12)C(=O)N[C@@H](CCC(=O)O)C(=O)N[C@@H](Cc1c[nH]c2ccccc12)C(=O)N[C@H](C(=O)N[C@@H](CCCNC(=N)N)C(=O)N[C@@H](CCCNC(=N)N)C(N)=O)C(C)C [SEQ ID NO: 237] (Ac-VHVTIPQEIWEWVRR-NH2) | < 10 µM |
| CC(=O)N[C@H](C(=O)N[C@@H](Cc1c[nH]cn1)C(=O)N[C@@H](Cc1ccccc1)C(=O)N[C@H](C(=O)N[C@H](C(=O)N1CCC[C@H]1C(=O)N[C@@H](CCC(N)=O)C(=O)N[C@@H](CCC(=O)O)C(=O)N[C@@H](CC(C)C)C(=O)N[C@@H](Cc1ccc(O)cc1)C(=O)N[C@@H](CCC(=O)O)C(=O)N[C@@H](Cc1c[nH]c2ccccc12)C(=O)N[C@H](C(=O)N[C@@H](CCCNC(=N)N)C(=O)N[C@@H](CCCNC(=N)N)C(N)=O)C(C)C)C(C)C)[C@@H](C)O)C(C)C [SEQ ID NO: 238] (Ac-VHFTVPQELYEWVRR-NH2) | < 10 µM |
| CC[C@H](C)[C@H](NC(=O)[C@H](Cc1c[nH]c2ccccc12)NC(=O)[C@H](CC(=O)O)NC(=O)[C@H](Cc1c[nH]c2ccccc12)NC(=O)[C@H](CC(C)C)NC(=O)[C@H](CC(=O)O)NC(=O)[C@H](C)NC(=O)[C@@H]1CCCN1C(=O)[C@@H](NC(=O)[C@H](CO)NC(=O)[C@@H](NC(=O)[C@H](CCCCN)NC(=O)[C@@H](NC(C)=O)C(C)C)[C@@H](C)CC)C(C)C)C(=O)N[C@@H](CC(N)=O)C(=O)N[C@@H](CCCCN)C(N)=O [SEQ ID NO: 239] (Ac-VKISVPADLWDWINK-NH2) | < 10 µM |
| CC[C@H](C)[C@H](NC(=O)[C@H](Cc1c[nH]c2ccccc12)NC(=O)[C@H](CC(=O)O)NC(=O)[C@H](Cc1c[nH]c2ccccc12)NC(=O)[C@H](CC(C)C)NC(=O)[C@H](CC(=O)O)NC(=O)[C@H](C)NC(=O)[C@@H]1CCCN1C(=O)[C@@H](NC(=O)[C@H](CO)NC(=O)[C@@H](NC(=O)[C@H](CCCNC(=N)N)NC(=O)[C@H](CC(C)C)NC(C)=O)[C@@H](C)CC)C(C)C)C(=O)N[C@@H](CC(N)=O)C(=O)N[C@@H](CCCCN)C(N)=O [SEQ ID NO: 240] (Ac-LRISVPADLWDWINK-NH2) | < 10 µM |
| CC[C@H](C)[C@H](NC(=O)[C@H](Cc1c[nH]c2ccccc12)NC(=O)[C@H](CC(=O)O)NC(=O)[C@H](Cc1c[nH]c2ccccc12)NC(=O)[C@H](CC(C)C)NC(=O)[C@H](CC(=O)O)NC(=O)[C@H](C)NC(=O)[C@@H]1CCCN1C(=O)[C@@H](NC(=O)[C@H](Cc1ccc(O)cc1)NC(=O)[C@@H](NC(=O)[C@H](CCCNC(=N)N)NC(=O)[C@H](CC(C)C)NC(C)=O)[C@@H](C)CC)C(C)C)C(=O)N[C@@H](CC(N)=O)C(=O)N[C@@H](CCCCN)C(N)=O [SEQ ID NO: 241] (Ac-LRIYVPADLWDWINK-NH2) | < 10 µM |
| CC[C@H](C)[C@H](NC(=O)[C@H](Cc1c[nH]c2ccccc12)NC(=O)[C@H](CC(=O)O)NC(=O)[C@H](Cc1c[nH]c2ccccc12)NC(=O)[C@H](CC(C)C)NC(=O)[C@H](CC(=O)O)NC(=O)[C@H](C)NC(=O)[C@@H]1CCCN1C(=O)[C@@H](NC(=O)[C@H](Cc1ccc(O)cc1)NC(=O)CNC(=O)[C@H](CCCNC(=N)N)NC(=O)[C@@H](NC(C)=O)C(C)C)C(C)C)C(=O)N[C@@H](CC(N)=O)C(=O)N[C@@H](CCCCN)C(N)=O [SEQ ID NO: 242] (Ac-VRGYVPADLWDWINK-NH2) | < 10 µM |
| CC[C@H](C)[C@H](NC(=O)[C@H](Cc1c[nH]c2ccccc12)NC(=O)[C@H](CC(=O)O)NC(=O)[C@H](Cc1c[nH]c2ccccc12)NC(=O)[C@H](CC(C)C)NC(=O)[C@H](CC(=O)O)NC(=O)[C@H](C)NC(=O)[C@@H]1CCCN1C(=O)[C@@H](NC(=O)[C@H](Cc1ccc(O)cc1)NC(=O)[C@H](C)NC(=O)[C@H](CCCNC(=N)N)NC(=O)[C@@H](NC(C)=O)C(C)C)C(C)C)C(=O)N[C@@H](CC(N)=O)C(=O)N[C@@H](CCCCN)C(N)=O [SEQ ID NO: 243] (Ac-VRAYVPADLWDWINK-NH2) | < 10 µM |
| CC[C@H](C)[C@H](NC(=O)[C@H](Cc1c[nH]c2ccccc12)NC(=O)[C@H](CC(=O)O)NC(=O)[C@H](Cc1c[nH]c2ccccc12)NC(=O)[C@H](CC(C)C)NC(=O)[C@H](CC(=O)O)NC(=O)[C@H](C)NC(=O)[C@@H]1CCCN1C(=O)[C@@H](NC(=O)[C@H](Cc1ccc(O)cc1)NC(=O)[C@H](CC(C)C)NC(=O)[C@H](CCCNC(=N)N)NC(=O)[C@@H](NC(C)=O)C(C)C)C(C)C)C(=O)N[C@@H](CC(N)=O)C(=O)N[C@@H](CCCCN)C(N)=O [SEQ ID NO: 244] (Ac-VRLYVPADLWDWINK-NH2) | < 10 µM |
| CC[C@H](C)[C@H](NC(=O)[C@H](Cc1c[nH]c2ccccc12)NC(=O)[C@H](CC(=O)O)NC(=O)[C@H](Cc1c[nH]c2ccccc12)NC(=O)[C@H](CC(C)C)NC(=O)[C@H](CC(=O)O)NC(=O)[C@H](C)NC(=O)[C@@H]1CCCN1C(=O)[C@H](CC(C)C)NC(=O)[C@H](Cc1ccc(O)cc1)NC(=O)[C@@H](NC(=O)[C@H](CCCNC(=N)N)NC(=O)[C@@H](NC(C)=O)C(C)C)[C@@H](C)CC)C(=O)N[C@@H](CC(N)=O)C(=O)N[C@@H](CCCCN)C(N)=O [SEQ ID NO: 245] (Ac-VRIYLPADLWDWINK-NH2) | < 10 µM |
| CC[C@H](C)[C@H](NC(C)=O)C(=O)N[C@@H](Cc1c[nH]cn1)C(=O)N[C@H](C(=O)N[C@H](C(=O)N[C@H](C(=O)N1CCC[C@H]1C(=O)N[C@@H](CC(C)C)C(=O)N[C@@H](CCC(=O)O)C(=O)N[C@H](C(=O)N[C@@H](Cc1ccccc1)C(=O)N[C@@H](CCC(=O)O)C(=O)N[C@@H](Cc1c[nH]c2ccccc12)C(=O)N[C@@H](CC(C)C)C(=O)N[C@@H](CCC(N)=O)C(=O)N[C@@H](Cc1c[nH]cn1)C(N)=O)[C@@H](C)CC)[C@@H](C)CC)[C@@H](C)O)C(C)C [SEQ ID NO: 246] (Ac-IHVTIPLEIFEWLQH-NH2) | < 10 µM |
| CC[C@H](C)[C@H](NC(C)=O)C(=O)N[C@@H](Cc1c[nH]cn1)C(=O)N[C@H](C(=O)N[C@H](C(=O)N[C@H](C(=O)N1CCC[C@H]1C(=O)N[C@@H](CC(C)C)C(=O)N[C@@H](CCC(=O)O)C(=O)N[C@H](C(=O)N[C@@H](Cc1ccccc1)C(=O)N[C@@H](CCC(=O)O)C(=O)N[C@@H](Cc1c[nH]c2ccccc12)C(=O)N[C@@H](C)C(=O)N[C@@H](CCC(N)=O)C(=O)N[C@@H](Cc1c[nH]cn1)C(N)=O)[C@@H](C)CC)[C@@H](C)CC)[C@@H](C)O)C(C)C [SEQ ID NO: 247] (Ac-IHVTIPLEIFEWAQH-NH2) | < 10 µM |
| CC[C@H](C)[C@H](NC(C)=O)C(=O)N[C@@H](Cc1c[nH]cn1)C(=O)N[C@H](C(=O)N[C@H](C(=O)N[C@H](C(=O)N1CCC[C@H]1C(=O)N[C@@H](CC(C)C)C(=O)N[C@@H](CCC(=O)O)C(=O)N[C@H](C(=O)N[C@@H](Cc1ccccc1)C(=O)N[C@@H](CCC(=O)O)C(=O)N[C@@H](Cc1c[nH]c2ccccc12)C(=O)N[C@@H](CC(C)C)C(=O)N[C@@H](CCC(N)=O)C(=O)N[C@@H](CCCNC(=N)N)C(N)=O)[C@@H](C)CC)[C@@H](C)CC)[C@@H](C)O)C(C)C [SEQ ID NO: 248] (Ac-IHVTIPLEIFEWLQR-NH2) | < 10 µM |
| CC[C@H](C)[C@H](NC(C)=O)C(=O)N[C@@H](Cc1c[nH]cn1)C(=O)N[C@H](C(=O)N[C@H](C(=O)N[C@H](C(=O)N1CCC[C@H]1C(=O)N[C@@H](CC(C)C)C(=O)N[C@@H](CCC(=O)O)C(=O)N[C@H](C(=O)N[C@@H](Cc1ccccc1)C(=O)N[C@@H](CCC(=O)O)C(=O)N[C@@H](Cc1c[nH]c2ccccc12)C(=O)N[C@@H](CC(C)C)C(=O)N[C@@H](CCC(N)=O)C(=O)N[C@@H](Cc1c[nH]cn1)C(N)=O)C(C)C)[C@@H](C)CC)[C@@H](C)O)C(C)C [SEQ ID NO: 249] (Ac-IHVTIPLEVFEWLQH-NH2) | < 10 µM |
| CC[C@H](C)[C@H](NC(C)=O)C(=O)N[C@@H](Cc1c[nH]cn1)C(=O)N[C@H](C(=O)N[C@H](C(=O)N[C@H](C(=O)N1CCC[C@H]1C(=O)NCC(=O)N[C@@H](CCC(=O)O)C(=O)N[C@H](C(=O)N[C@@H](Cc1ccccc1)C(=O)N[C@@H](CCC(=O)O)C(=O)N[C@@H](Cc1c[nH]c2ccccc12)C(=O)N[C@@H](CC(C)C)C(=O)N[C@@H](CCC(N)=O)C(=O)N[C@@H](Cc1c[nH]cn1)C(N)=O)[C@@H](C)CC)[C@@H](C)CC)[C@@H](C)O)C(C)C [SEQ ID NO: 250] (Ac-IHVTIPGEIFEWLQH-NH2) | < 10 µM |
| CC[C@H](C)[C@H](NC(=O)[C@H](CCC(=O)O)NC(=O)[C@H](CCC(N)=O)NC(=O)[C@@H]1CCCN1C(=O)[C@@H](NC(=O)[C@H](CO)NC(=O)[C@H](Cc1ccccc1)NC(=O)[C@H](CCCNC(=N)N)NC(=O)[C@@H](NC(C)=O)C(C)C)C(C)C)C(=O)N[C@@H](Cc1ccc(O)cc1)C(=O)N[C@@H](CCC(=O)O)C(=O)N[C@@H](Cc1c[nH]c2ccccc12)C(=O)N[C@H](C(=O)N[C@@H](CCCNC(=N)N)C(=O)N[C@@H](CCCNC(=N)N)C(N)=O)C(C)C [SEQ ID NO: 251] (Ac-VRFSVPQEIYEWVRR-NH2) | < 10 µM |
| CC[C@H](C)[C@H](NC(=O)[C@H](CCC(=O)O)NC(=O)[C@H](CC(C)C)NC(=O)[C@@H]1CCCN1C(=O)[C@@H](NC(=O)[C@H](CO)NC(=O)[C@@H](NC(=O)[C@H](CCCNC(=N)N)NC(=O)[C@H](CC(C)C)NC(C)=O)[C@@H](C)CC)C(C)C)C(=O)N[C@@H](Cc1ccccc1)C(=O)N[C@@H](CCC(=O)O)C(=O)N[C@@H](Cc1c[nH]c2ccccc12)C(=O)N[C@@H](CC(C)C)C(=O)N[C@@H](CCC(N)=O)C(=O)N[C@@H](Cc1c[nH]cn1)C(N)=O [SEQ ID NO: 252] (Ac-LRISVPLEIFEWLQH-NH2) | < 10 µM |

From US11236129B2, “IL-17A binding peptides and medical uses thereof” (Dompe' Farmaceutici S.P.A., priority 2018, dated 2022)
